The subject of data set [1] is Imiquimod-induced psoriasis in mice. Kind of data set: Imiquimod-induced psoriasis, ear histopathology. The format is in vivo, mouse. The following applies: 10 mg/kg PO daily. On the procedure:
Female BALB/cAnNCrl mice (Charles River, age 8 to 10 weeks at study start) have been assigned to the following groups (treatment schedule):
In this experiment, two positive controls have been utilized. Firstly, Prednisolone at 10 mg/kg (vehicle: 1% Hydroxyethylcellulose, 0.25% Polysorbate 80, and 0.05% Antifoam in purified water) has been dosed daily and orally (group “Prednisolone”). Secondly, Dexamethasone has been administered at 0.5 mg/kg (vehicle: sterile 0.9% NaCl) on days 1, 4 and 7 via intravenous route.
On day 8, animals have been sacrificed and the tissue (ear) has been fixed in 10% neutral buffered formalin. For histopathology hematoxylin-and-eosin-stained sections (cross cut) have been prepared and microscopic evaluation on the collected tissues from all animals has been performed. Methods and end-points for histopathology were similarly described in the van der Fits (2009) paper in that inflammation, epidermal hyperplasia, epidermal hyperkeratosis (rather than parakeratosis) were observed and recorded for severity grade, whereby the respective methodology from Van der Fits et al. (The Journal of Immunology 2009, 182, P. 5836-5845) is hereby incorporated by reference. Histopathology grading scores were excluded for either skin or ear in animals with secondary inflammatory processes (full thickness epidermal ulcers). Scores were averaged by group and standard deviation and statistical significance were calculated. […] Formalin-fixed, paraffin embedded skin from the dorsal surface of the mouse (BALB/c) was stained with hematoxylin and eosin (H&E) stain and assessed microscopically. An important difference from the above reference and to describe in more detail the observations of the present study: Hyperkeratosis can be defined specifically as orthokeratotic (no retained nuclei) or parakeratotic (retained nuclei). Either can occur normally in various anatomical locations and depending on species; however, both conditions are well defined in particular disease states. The van der Fits paper describes their Imiquimod (IMQ)-induced psoriasis model as causing parakeratotic hyperkeratosis similar to what is seen in the human condition, and that was a defined end-point for this study. However, the Danilenko et al. (Veterinary Pathology 2008 45:563) has shown that many rodent psoriasis models have orthokeratotic hyperkeratosis. […] The more general term ‘hyperkeratosis’ was used for grading end-points and describe in the text what type was seen (primarily orthokeratotic).
Microscopic Histopathology end-points were graded as such: […]

Data set [2] can be described thus: Stability (half-life) in human serum, UPLC-MS. The following applies: human serum (10 and 50% in PBS; FIG. 5: 50%), 0.1 mM peptide. On the procedure: The experiment was performed as described by Tugyi et al. (Proc Natl Acad Sci USA, 2005, 413-418). The remaining intact peptide was quantified by UPLC-MS.
For data set [3], the system named is endotoxins-induced uveitis albino rat model. Kind of data set: Endotoxins-induced uveitis (EIU), single intravenous injection, clinical scoring. The format is in vivo. Further details: key to clinical score (mean±SEM) / clinical score, median: clinical ocular inflammation score per eye, 0 to 4. The following applies: sub-conjunctival, 20 Dg/eye; 24 h after LPS. How it is done: The anti-inflammatory potency of the JNK inhibitor of SEQ ID NO: 172 was tested in albino rats following intravenous administration (EIU/LPS model). The aim of this study was to determine the effects of single intravenous injections of SEQ ID NO: 172 (0.015, 0.18, and 1.80 mg/kg) on the inflammatory response in an endotoxins-induced uveitis albino rat model and to compare these affects to those obtained with prior art JNK inhibitor of SEQ ID NO: 197 (2 mg/kg). As a further control served phosphate sodic dexamethasone (“reference”) and vehicle (0.9% NaCl).
Sixty (60) male Lewis rats were randomly divided into six (6) groups often (10) animals each. 0.9% NaCl (vehicle, “control”), SEQ ID NO: 197 at 2 mg/kg and SEQ ID NO: 172 at three concentrations (1.80 mg/kg, 0.18 mg/kg and 0.015 mg/kg) were administered by intravenous injection just before EIU induction (on the day of induction). Accordingly, phosphate sodic dexamethasone (20 Dg/eye, 5 μl; “reference”) was administered by a single sub-conjunctival injection in both eyes just before EIU induction (on the day of induction). EIU was induced by footpad injection of lipopolysaccharide (LPS, 1 mg/kg). 24 hours after LPS injection, inflammatory response was evaluated by clinical scoring.
The intensity of clinical ocular inflammation was scored on a scale from 0 to 4 for each eye: […]

In data set [4] the test system is Endotoxin-Induced Uveitis (EIU) model in rats. Kind of data set: Action duration in endotoxin-induced uveitis (EIU), clinical scoring and PMN cells quantification. The following applies: 2 mg/kg i.v. immediately before EIU induction. The format is in vivo, rat. On the procedure: […] (18) female Lewis rats (36 eyes) were randomly divided into 6 groups of 3 animals each. EIU was induced by a single footpad injection of 100 µl sterile pyrogen-free saline containing 200 µg of LPS (Lipopolysaccharides from Salmonella typhimurium, Sigma-Aldrich, France)(2 mg/ml).
Animals were treated 48 hours, 1 week, 2 weeks or 4 weeks before EIU induction by intravenous injection of the JNK inhibitor according to SEQ ID NO: 172 (“XG-104”) at a single dose of 1 mg/kg (dose volume 1 ml/kg) in the tail vein. Dexamethasone 2 mg/kg or vehicle (NaCl 0.9%) were injected intravenously immediately before EIU induction.
The effect of the JNK inhibitor according to SEQ ID NO: 172 (“XG-104”) on EIU was evaluated using clinical scoring and PMN cells quantification 24 hours after induction. Ocular examinations were performed by slit lamp at 24 hours i.e. at the clinical peak of the disease in this model. The intensity of clinical ocular inflammation was scored on a scale from 0 to 5 for each eye: • Grade 0: no inflammation, • Grade 1: presence of a minimal iris and conjunctival vasodilatation but without the observation of flare or cells in the anterior chamber (AC), • Grade 2: presence of moderate iris and conjunctival vessel dilation but without evident flare or cells in the AC, • Grade 3: presence of intense iris vessels dilation, flare and less than 10 cells per slit lamp, field in the AC, • Grade 4: presence of more severe clinical signs than grade 3, with more than 10 cells in the AC with or without the formation of a hypopyon, • Grade 5: presence of intense inflammatory reaction, fibrin formation in the AC and total seclusion of the pupil.
For histology, eighteen eyeballs (one per animal) were collected and fixed for 1 h at room temperature in phosphate buffered saline (PBS) containing 4% paraformaldehyde before being rinsed overnight in PBS. The next day, samples were embedded in optimal cutting temperature (OTC) compound (Tissue-Tek®, Sakura Finetek, Zoeterwoude, Netherland) and the optic nerve level using a cryostat (Leica CM 3050S, France) and mounted on super-frost slides for histology. After nuclei staining with DAPI (Sigma-Aldrich, France), sections were mounted in PBS/Glycerol (1/1) and observed by fluorescence photomicroscopy (FXA Microphot, Nikon, USA). Digitized micrographs were obtained usinga digital camera (Spot, BFI Optilas, France). PMN cells identified by the shape of their nuclei stained with DAPI, were quantified on histological sections. The analysis was performed with 2 different sections per eye at the optic nerve head level.
Twenty-four hours after LPS induction, clinical scores for the vehicle-treated rats were 4.6±0.2 (mean±SEM, n=8). Reduction was calculated as (grade in vehicle-treated eye—grade in test item treated eye)/(grade in vehicle-treated eye). A significant reduction (*p<0.05, **p<0.01) in the severity of the ocular inflammation was detected 24 hours after induction and intravenous treatment with the JNK inhibitor according to SEQ ID NO: 172 (“XG-104”) (1 mg/kg) administered 48 hours before EIU induction (mean score: 2.8±0.3), corresponding to a 40% (**) decrease of EIU scores compared with the score observed in vehicle group, 24 hours after induction and intravenous treatment with the JNK inhibitor according to SEQ ID NO: 172 (“XG-104”) (1 mg/kg) administered 1 week before EIU induction (mean score: 3.3±0.3), corresponding to a 27% (*) decrease of EIU scores compared with the score observed in vehicle group, and 24 hours after induction and intravenous treatment with the JNK inhibitor according to SEQ ID NO: 172 (“XG-104”) (1 mg/kg) administered 2 weeks before EIU induction (mean score: 3.0±0.2), corresponding to a 35% (**) decrease of EIU scores compared with the score observed in vehicle group. […]

Data set [5] relates to established type II collagen arthritis in rats. Kind of data set: Chronic established type II collagen arthritis, daily IV 14 days. It is filed as in vivo, rat. The text has this: Rat collagen arthritis is an experimental model of polyarthritis that has been widely used for preclinical testing of numerous anti-arthritic agents that are either under preclinical or clinical investigation or are currently used as therapeutics in this disease. […] Animals were terminated on arthritis day 14.

The subject of data set [6] is acute CYP-induced cystitis in female Sprague-Dawley rats. Kind of data set: Cyclophosphamide-induced acute cystitis, intravesical treatment, visceral pain and bladder inflammation. The format is in vivo, rat. The following applies: 50 mg/mL, i.ves. How it is done:
This preclinical model is well-used to test therapeutic approaches for the treatment of interstitial cystitis/painful bladder syndrome (IC/PBS).
Animals were acclimatized to the laboratory conditions for at least 3 days before the start of any experiments. The animals were allocated to the following four experimental groups (n=10 animals per group):
To induce acute cystitis, a single i.p. injection of CYP at a dose of 150 mg/kg in a final volume of 5 mL/kg was performed. Control rats received physiological saline under the same experimental conditions as CYP (final volume of 5 mL/kg, i.p.).
On the day of each experiment, weight of rats was recorded.
Standardized conditions including fixed time-of-day (a.m. to minimize the potential circadian variations in the behaviours responses) and single-experimenter testing of all animals were applied to minimize variability behavior-based pain testing. Visceral pain including allodynia and hyperalgesia was evaluated by applying to the lower abdomen, close to the urinary bladder, a set of 8 calibrated von Frey filaments of increasing forces (1, 2, 4, 6, 8, 10, 26 and 60 g) with an interstimulus interval of 5 seconds. Prior testing, the abdominal area designed for mechanical stimulation of each animal was shaved. Animals were then placed on a raised wire mesh floor under individual transparent Plexiglas box and acclimatized for at least 30 minutes before starting the von Frey test. Filaments were then applied 1-2 seconds through the mesh floor with enough strength to cause the filament to slightly bend. Each filament was tested 3 times. Care was taken to stimulate different areas within the lower abdominal region in the vicinity of the urinary bladder to avoid desensitization.
Nociceptive behaviors were scored for each animal and each filament as follows:
The study design is schematically shown in FIG. 50 A. Birefly, acute cystitis was induced by CYP injection (i.p.) at Do (as described above).
Urinary bladders were rapidly collected and cleaned from lipoid tissue. Urinary bladders were weighed, cut at the bladder neck as well as oedema and haemorrhage scoring was performed (see table below). Finally, wall thickness was measured using a digital caliper by placing the bladder wall between the two outside jaws.

The mark [7] stands for this setting: vs disease controls, IV QD d1-14, Dex 0.05 mg/kg, SEQ ID NO: 172 up to 5 mg/kg.

The structures appear in SMILES notation. Peptide text beside a SMILES is read from it.

As for `C[C@]12C=CC(=O)C=C1CC[C@@H]1[C@@H]2[C@@H](O)C[C@@]2(C)[C@H]1CC[C@]2(O)C(=O)CO` [Prednisolone, reference compound], in data set [1], the “epidermal hyperkeratosis of the ear (average grades)” value is reported as “minimally decreased average grades” and the “inflammation of the ear (average grade) vs vehicle-IMQ” value is on record as “decreased inflammation of the ear”. Besides, in data set [1] (listed as prednisolone), the “inflammation of the ear (average grade) vs vehicle-IMQ” value was “significant differences from the vehicle control group”.

`CC(C)C[C@H](NC(=O)[C@H](CC(N)=O)NC(=O)[C@H](CC(C)C)NC(=O)[C@@H](NC(=O)[C@@H](NC(=O)[C@@H]1CCCN1C(=O)[C@H](CCCNC(=N)N)NC(=O)[C@H](CCCCN)NC(=O)[C@@H]1CCCN1C(=O)[C@H](CCCNC(=N)N)NC(=O)[C@@H]1CCCN1C(=O)[C@@H]1CCCN1C(=O)[C@H](CCCNC(=N)N)NC(=O)[C@H](CCCNC(=N)N)NC(=O)[C@H](CCCNC(=N)N)NC(=O)[C@H](CCC(N)=O)NC(=O)[C@H](CCCNC(=N)N)NC(=O)[C@H](CCCNC(=N)N)NC(=O)[C@H](CCCCN)NC(=O)[C@H](CCCCN)NC(=O)[C@H](CCCNC(=N)N)NC(=O)CN)[C@@H](C)O)[C@@H](C)O)C(=O)N[C@@H](Cc1ccccc1)C(=O)N1CCC[C@H]1C(=O)N[C@@H](CCC(N)=O)C(=O)N[C@H](C(=O)N1CCC[C@H]1C(=O)N[C@@H](CCCNC(=N)N)C(=O)N[C@@H](CO)C(=O)N[C@@H](CCC(N)=O)C(=O)N[C@@H](CC(=O)O)C(N)=O)C(C)C` [SEQ ID NO: 196, reference compound] (H-GRKKRRQRRRPPRPKRPTTLNLFPQVPRSQD-NH2): the “time until totally degraded into amino acids residues” value in data set [2] is at most 6 h.

As for `C[C@@H]1C[C@H]2[C@@H]3CCC4=CC(=O)C=C[C@]4(C)[C@@]3(F)[C@@H](O)C[C@]2(C)[C@@]1(O)C(=O)CO` [dexamethasone, reference compound], in data set [3], the “clinical score (mean±SEM)” value worked out at 0.8±0.2 and the “clinical score, median” value came to 0.5. Besides, in data set [4], the “clinical score (mean±SEM)” value stood at 1.4±0.2 and the “decrease of clinical scores vs vehicle group” value worked out at 69%. Moreover, in data set [5] (0.05 mg/kg IV QD d1-14), the “ankle diameter AUC, reduction toward normal” value turned out to be 97% and the “inhibition of body weight loss vs disease controls” value turned out to be 21%. The “final paw weights, reduction toward normal” value in data set [5] (Dex 0.05 mg/kg IV QD d1-14) was determined as 114%. Moreover, in data set [5] (setting [7]), the “spleen weights relative to body weight” value is “significantly (p<0.05 by ANOVA) reduced” and the “thymus weights relative to body weight” value is “significantly (p<0.05 by ANOVA) reduced”.

Consider `CC(C)Cc1ccc(C(C)C(=O)O)cc1` (stereo not shown) [ibuprofen, reference compound], for which the urine observation result in data set [6] is “reddish urine was noticed for some animal”. In data set [6] (24 h after CYP), the “haemorrhage scores vs vehicle” value is “no significant change”, the “nociceptive scores vs vehicle” value is given as “significant decrease”, the “nociceptive threshold vs vehicle” value was “significantly increased” and the “oedema scores vs vehicle” value was “significant decrease”. Further, the “urinary bladder wall thickness vs vehicle” value in data set [6] (24 h after CYP) is “significant decrease”.
